Reference: ChEMBL document CHEMBL3045770, “Design and synthesis of some thieno[2,3-c]pyridazine derivatives of expected anticancer activity” (2013)

How the values were obtained:
Format in all cases: functional
[1] = test system: OVCAR-8; assay: Cytotoxicity against Homo sapiens (human) OVCAR8 cells after 48 hr by SRB assay; details: OVCAR-8, 48 h
[2] = test system: OVCAR-3; assay: Cytotoxicity against Homo sapiens (human) OVCAR3 cells after 48 hr by SRB assay; details: OVCAR-3, 48 h
[3] = test system: UACC-62; assay: Cytotoxicity against Homo sapiens (human) UACC62 cells after 48 hr by SRB assay; details: UACC-62, 48 h
[4] = test system: SK-MEL-5; assay: Cytotoxicity against Homo sapiens (human) SK-MEL-5 cells after 48 hr by SRB assay; details: SK-MEL-5, 48 h
[5] = test system: SK-MEL-2; assay: Cytotoxicity against Homo sapiens (human) SK-MEL-2 cells after 48 hr by SRB assay; details: SK-MEL-2, 48 h
[6] = test system: MDA-MB-435; assay: Cytotoxicity against Homo sapiens (human) MDA-MB-435 cells after 48 hr by SRB assay; details: MDA-MB-435, 48 h
[7] = test system: M14; assay: Cytotoxicity against Homo sapiens (human) M14 cells after 48 hr by SRB assay; details: M14, 48 h
[8] = test system: Malme-3M; assay: Cytotoxicity against Homo sapiens (human) MALME-3M cells after 48 hr by SRB assay
[9] = test system: LOX IMVI; assay: Cytotoxicity against Homo sapiens (human) LOXIMVI cells after 48 hr by SRB assay
[10] = test system: SNB-75; assay: Cytotoxicity against Homo sapiens (human) SNB75 cells after 48 hr by SRB assay; details: SNB-75, 48 h
[11] = test system: U-251; assay: Cytotoxicity against Homo sapiens (human) U251 cells after 48 hr by SRB assay; details: U-251, 48 h
[12] = test system: SNB-19; assay: Cytotoxicity against Homo sapiens (human) SNB19 cells after 48 hr by SRB assay; details: SNB-19, 48 h
[13] = test system: SF-539; assay: Cytotoxicity against Homo sapiens (human) SF539 cells after 48 hr by SRB assay; details: SF-539, 48 h
[14] = test system: KM12; assay: Cytotoxicity against Homo sapiens (human) KM12 cells after 48 hr by SRB assay; details: KM12, 48 h
[15] = test system: HCT-15; assay: Cytotoxicity against Homo sapiens (human) HCT15 cells after 48 hr by SRB assay; details: HCT-15, 48 h
[16] = test system: HCC 2998; assay: Cytotoxicity against Homo sapiens (human) HCC2998 cells after 48 hr by SRB assay; details: HCC 2998, 48 h
[17] = test system: HCT-116; assay: Cytotoxicity against Homo sapiens (human) HCT116 cells after 48 hr by SRB assay; details: HCT-116, 48 h
[18] = test system: COLO 205; assay: Cytotoxicity against Homo sapiens (human) COLO205 cells after 48 hr by SRB assay; details: COLO 205, 48 h
[19] = test system: NCI-H522; assay: Cytotoxicity against Homo sapiens (human) NCI-H522 cells after 48 hr by SRB assay; details: NCI-H522, 48 h
[20] = test system: T47D; assay: Cytotoxicity against Homo sapiens (human) T47D cells after 48 hr by SRB assay
[21] = test system: Hs-578T; assay: Cytotoxicity against Homo sapiens (human) Hs 578T cells after 48 hr by SRB assay
[22] = test system: DU-145; assay: Cytotoxicity against Homo sapiens (human) DU145 cells after 48 hr by SRB assay; details: DU-145, 48 h
[23] = test system: PC-3; assay: Cytotoxicity against Homo sapiens (human) PC3 cells after 48 hr by SRB assay; details: PC-3, 48 h
[24] = test system: TK-10; assay: Cytotoxicity against Homo sapiens (human) TK10 cells after 48 hr by SRB assay; details: TK-10, 48 h
[25] = test system: CAKI-1; assay: Cytotoxicity against Homo sapiens (human) Caki1 cells after 48 hr by SRB assay; details: CAKI-1, 48 h
[26] = test system: ACHN; assay: Cytotoxicity against Homo sapiens (human) ACHN cells after 48 hr by SRB assay
[27] = test system: SK-OV-3; assay: Cytotoxicity against Homo sapiens (human) SKOV3 cells after 48 hr by SRB assay; details: SK-OV-3, 48 h
[28] = test system: NCI-H460; assay: Cytotoxicity against Homo sapiens (human) NCI-H460 cells after 48 hr by SRB assay; details: NCI-H460, 48 h
[29] = test system: NCI-H226; assay: Cytotoxicity against Homo sapiens (human) NCI-H226 cells after 48 hr by SRB assay; details: NCI-H226, 48 h
[30] = test system: HOP-92; assay: Cytotoxicity against Homo sapiens (human) HOP92 cells after 48 hr by SRB assay; details: HOP-92, 48 h
[31] = test system: EKVX; assay: Cytotoxicity against Homo sapiens (human) EKVX cells after 48 hr by SRB assay
[32] = test system: RPMI-8226; assay: Cytotoxicity against Homo sapiens (human) RPMI8226 cells after 48 hr by SRB assay; details: RPMI-8226, 48 h
[33] = test system: MOLT-4; assay: Cytotoxicity against Homo sapiens (human) MOLT4 cells after 48 hr by SRB assay; details: MOLT-4, 48 h
[34] = test system: K562; assay: Cytotoxicity against Homo sapiens (human) K562 cells after 48 hr by SRB assay; details: K562, 48 h
[35] = read-out: LC50 (the source's name)

Oc1c(-c2nnc(-c3ccc(Cl)cc3)o2)sc2nnc(-c3ccccc3)c(-c3ccccc3)c12
GI50 [1]: 4.38 µM | TGI [1]: 18.3 µM | CC50 [1, 35]: 0.0183 µM | GI50 [2]: 3.77 µM | TGI [2]: 6.1 µM | GI50 [3]: 3.77 µM | TGI [3]: 6.61 µM | GI50 [4]: 5.41 µM | TGI [4]: 9.1 µM | CC50 [4, 35]: 0.0136 µM | GI50 [5]: 4.13 µM | TGI [5]: 8.23 µM | GI50 [6]: 4.65 µM | TGI [6]: 18.3 µM | GI50 [7]: 4.99 µM | TGI [7]: 12.2 µM | GI50 [8]: 4.61 µM | TGI [8]: 11.3 µM | GI50 [9]: 3.73 µM | TGI [9]: 9.47 µM | CC50 [9, 35]: 0.0183 µM | GI50 [10]: 5.74 µM | TGI [10]: 18.3 µM | GI50 [11]: 3.55 µM | TGI [11]: 18.3 µM | CC50 [11, 35]: 0.0183 µM | GI50 [12]: 4.7 µM | TGI [12]: 18.3 µM | GI50 [13]: 4.75 µM | TGI [13]: 15.8 µM | CC50 [13, 35]: 0.0183 µM | GI50 [14]: 4.7 µM | TGI [14]: 15 µM | CC50 [14, 35]: 0.0183 µM | GI50 [15]: 2.27 µM | TGI [15]: 18.3 µM | GI50 [16]: 4.99 µM | TGI [16]: 18.3 µM | GI50 [17]: 3.97 µM | TGI [17]: 7.16 µM | GI50 [18]: 4.7 µM | TGI [18]: 18.3 µM | CC50 [18, 35]: 0.0183 µM | GI50 [19]: 4.34 µM | TGI [19]: 9.76 µM | GI50 [20]: 4.89 µM | TGI [20]: 18.3 µM | GI50 [21]: 4.43 µM | TGI [21]: 18.3 µM | GI50 [22]: 6.22 µM | TGI [22]: 18.3 µM | GI50 [23]: 4.09 µM | TGI [23]: 18.3 µM | CC50 [23, 35]: 0.0183 µM | GI50 [24]: 5.14 µM | TGI [24]: 16.9 µM | CC50 [24, 35]: 0.0183 µM | GI50 [25]: 1.84 µM | TGI [25]: 9.95 µM | GI50 [26]: 4.25 µM | TGI [26]: 17.4 µM | CC50 [26, 35]: 0.0183 µM | GI50 [27]: 5.04 µM | TGI [27]: 18.3 µM | CC50 [27, 35]: 0.0183 µM | GI50 [28]: 3.15 µM | TGI [28]: 8.07 µM | CC50 [28, 35]: 0.0183 µM | GI50 [29]: 3.06 µM | TGI [29]: 18.3 µM | CC50 [29, 35]: 0.0183 µM | GI50 [30]: 3.21 µM | TGI [30]: 6.74 µM | CC50 [30, 35]: 0.0183 µM | GI50 [31]: 4.05 µM | TGI [31]: 11.2 µM | CC50 [31, 35]: 0.0183 µM | GI50 [32]: 3.97 µM | TGI [32]: 18.3 µM | CC50 [32, 35]: 0.0183 µM | GI50 [33]: 4.47 µM | TGI [33]: 18.3 µM | CC50 [33, 35]: 0.0183 µM | GI50 [34]: 4.17 µM | TGI [34]: 18.3 µM | CC50 [34, 35]: 0.0183 µM
